Source: patent publication US8710233B2 (Gruenenthal GmbH, priority 2005, dated 2014)

Assays:
vanilloid receptor (VR1) = target: T1, vanilloid receptor (VR1) (Homo sapiens, UniProt Q8NER1); assay: FLIPR Ca2+ influx assay on CHO K1 cells transfected with the VR1 gene (pharmacological method II); format: cell-based; conditions: table 4; capsaicin; read-out: Ki (human) Cap.
T1 construct: expressed in transfected cells; host or cells: CHO K1 cells (ECACC), stably transfected

[1] = test system: formaldehyde induced nociceptive behaviour; assay: Formaldehyde test in mice, second (late) phase; format: in vivo, mouse; conditions: mouse, read-out: inhibition formaldehyde test (n = 10)

T1 sequence (Q8NER1 whole entry): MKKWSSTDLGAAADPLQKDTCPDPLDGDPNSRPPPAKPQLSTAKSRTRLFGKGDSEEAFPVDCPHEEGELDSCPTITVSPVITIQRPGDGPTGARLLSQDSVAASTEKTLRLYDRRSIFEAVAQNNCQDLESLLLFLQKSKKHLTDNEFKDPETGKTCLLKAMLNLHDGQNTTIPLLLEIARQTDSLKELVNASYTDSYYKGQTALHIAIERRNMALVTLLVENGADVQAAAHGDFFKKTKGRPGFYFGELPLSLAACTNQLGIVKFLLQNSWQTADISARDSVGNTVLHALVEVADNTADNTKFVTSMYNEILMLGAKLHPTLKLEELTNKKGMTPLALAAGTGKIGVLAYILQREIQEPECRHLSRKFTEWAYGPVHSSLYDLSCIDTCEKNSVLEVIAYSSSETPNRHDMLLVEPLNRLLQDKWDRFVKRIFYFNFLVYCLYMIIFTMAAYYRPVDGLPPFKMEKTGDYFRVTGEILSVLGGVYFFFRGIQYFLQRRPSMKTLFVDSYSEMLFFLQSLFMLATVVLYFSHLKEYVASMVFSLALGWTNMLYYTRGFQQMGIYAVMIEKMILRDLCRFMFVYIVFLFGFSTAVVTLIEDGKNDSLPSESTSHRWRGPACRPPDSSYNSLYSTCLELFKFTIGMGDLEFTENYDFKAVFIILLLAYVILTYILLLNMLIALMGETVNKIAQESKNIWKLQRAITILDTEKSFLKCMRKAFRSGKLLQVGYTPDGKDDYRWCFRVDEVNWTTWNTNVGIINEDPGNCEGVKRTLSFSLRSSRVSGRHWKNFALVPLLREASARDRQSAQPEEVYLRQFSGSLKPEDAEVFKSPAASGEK

Structure (SMILES) | Ki (vanilloid receptor (VR1)) | inhibition in vivo at 0.3 mg/kg ([1]; 0.3 mg/kg body weight po) | inhibition in vivo at 0.03 mg/kg ([1]; 0.03 mg/kg body weight po)
CC(C(=O)NCc1ccc(C(F)(F)F)nc1OCCC(C)(C)C)c1ccc(NS(C)(=O)=O)c(F)c1 (centres unmarked) [Example 125] | 0.9 nM | 24% | 
CC(C(=O)NCc1ccc(C(C)(C)C)nc1OC1CCCC1)c1ccc(NS(C)(=O)=O)c(F)c1 (centres unmarked) [Example 234, N-(6-tert-butyl-2-cyclopentyloxy-pyridin-3-ylmethyl)-2-(3-fluoro-4-methylsulfonamido-phenyl)-propionamide] | 1.5 nM |  | 5%
Cc1ccc(Cl)cc1Nc1nc(C(F)(F)F)ccc1CNC(=O)C(C)c1ccc(NS(C)(=O)=O)c(F)c1 (centres unmarked) [Example 136, N-[2-(5-chloro-2-methyl-phenylamino)-6-trifluoromethyl-pyridin-3-ylmethyl]-2-(3-fluoro-4-methylsulfonamido-phenyl)-propionamide] | 14 nM |  | 
